# Results published in paper PMC11193023 (The Journal of Biological Chemistry, 2024).
# Target: T1, BwCuyA (Bilophila wadsworthia, UniProt E5Y343)
# T1 sequence (E5Y343 1-333): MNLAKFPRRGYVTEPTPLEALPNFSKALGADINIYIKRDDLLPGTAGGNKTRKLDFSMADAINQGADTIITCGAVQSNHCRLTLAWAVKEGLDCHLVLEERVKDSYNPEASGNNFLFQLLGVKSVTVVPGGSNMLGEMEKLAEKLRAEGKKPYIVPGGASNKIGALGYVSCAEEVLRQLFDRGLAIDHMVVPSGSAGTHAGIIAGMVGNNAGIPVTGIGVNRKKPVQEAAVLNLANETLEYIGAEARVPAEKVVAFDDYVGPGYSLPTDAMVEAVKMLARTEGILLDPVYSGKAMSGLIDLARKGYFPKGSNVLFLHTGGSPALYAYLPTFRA
# Test: UV-Vis absorbance spectrum of purified enzyme
# Assay type: binding
# Details: enzyme as isolated; sub-stoichiometric PLP content
smiles,measurement,value
Cc1ncc(COP(=O)(O)O)c(C=O)c1O [PLP],UV-Vis absorbance spectrum of purified enzyme,UV-Vis absorbance spectrum of BwCuyA exhibited characteristic features of the PLP cofactor
